Key:
SW-620 = experiment: NCI 60-cell one dose screen; type: cell-based, human; conditions: SW-620 (Colon cancer); 10^−5M
Protocol: (§1) NSC745885 was studied as a prototype for anti-proliferative activity against human cancer cell lines in NCI Drug Screen Program (Table 1, below). NSC745885 was evaluated in the full panel of human tumor cell lines derived from nine cancer cell types (leukemia, non-small cell lung cancer, colon cancer, CNS cancer, prostate cancer, melanoma, ovarian cancer, renal cancer and breast cancer). Each subpanel uses several cell lines and dose-response curves were drawn against the decadic logarithm (log 10) of the corresponding drug concentrations for each cell line by the subpanel group. They were also evaluated in the 60 cell line panel and anticancer assay was performed in accordance with the protocol of developmental therapeutics program (one dose mean graph). Results for each compound were reported as the proliferation percentage of the treated cells with that of the untreated control cells being 100. For each of these parameters the averaged values of mean graph midpoint (MG_MID) were calculated.

M14 = experiment: NCI 60-cell one dose screen; type: cell-based, human; conditions: M14 (Melanoma); 10^−5M
Protocol: as §1

K-562 = experiment: NCI 60-cell one dose screen; type: cell-based, human; conditions: K-562 (Leukemia); 10^−5M
Protocol: as §1

786-0 = experiment: NCI 60-cell one dose screen; type: cell-based, human; conditions: 786-0 (Renal cancer); 10^−5M
Protocol: as §1

SR = experiment: NCI 60-cell one dose screen; type: cell-based, human; conditions: SR (Leukemia); 10^−5M
Protocol: as §1

NCI/ADR-RES = experiment: NCI 60-cell one dose screen; type: cell-based, human; conditions: NCI/ADR-RES (Ovarian cancer); 10^−5M
Protocol: as §1

RXF393 = experiment: NCI 60-cell one dose screen; type: cell-based, human; conditions: RXF393 (Renal cancer); 10^−5M
Protocol: as §1

A549/ATCC = experiment: NCI 60-cell one dose screen; type: cell-based, human; conditions: A549/ATCC (Non-small cell lung cancer); 10^−5M; untreated control 100
Protocol: as §1

MDA-MB-231/ATCC = experiment: NCI 60-cell one dose screen; type: cell-based, human; conditions: MDA-MB-231/ATCC (Breast cancer); 10^−5M
Protocol: as §1

T-47D = experiment: NCI 60-cell one dose screen; type: cell-based, human; conditions: T-47D (Breast cancer); 10^−5M
Protocol: as §1

ACHN = experiment: NCI 60-cell one dose screen; type: cell-based, human; conditions: ACHN (Renal cancer); 10^−5M
Protocol: as §1

MOLT-4 = experiment: NCI 60-cell one dose screen; type: cell-based, human; conditions: MOLT-4 (Leukemia); 10^−5M
Protocol: as §1

CAK1-1 = experiment: NCI 60-cell one dose screen; type: cell-based, human; conditions: CAK1-1 (Renal cancer); 10^−5M
Protocol: as §1

OVCAR-4 = experiment: NCI 60-cell one dose screen; type: cell-based, human; conditions: OVCAR-4 (Ovarian cancer); 10^−5M
Protocol: as §1

SNB-75 = experiment: NCI 60-cell one dose screen; type: cell-based, human; conditions: SNB-75 (CNS cancer); 10^−5M
Protocol: as §1

UACC-257 = experiment: NCI 60-cell one dose screen; type: cell-based, human; conditions: UACC-257 (Melanoma); 10^−5M
Protocol: as §1

OVCAR-5 = experiment: NCI 60-cell one dose screen; type: cell-based, human; conditions: OVCAR-5 (Ovarian cancer); 10^−5M
Protocol: as §1

UACC-62 = experiment: NCI 60-cell one dose screen; type: cell-based, human; conditions: UACC-62 (Melanoma); 10^−5M
Protocol: as §1

RPMI-8226 = experiment: NCI 60-cell one dose screen; type: cell-based, human; conditions: RPMI-8226 (Leukemia); 10^−5M
Protocol: as §1

HL-60(TB) = experiment: NCI 60-cell one dose screen; type: cell-based, human; conditions: HL-60(TB) (Leukemia); 10^−5M
Protocol: as §1

SK-MEL-5 = experiment: NCI 60-cell one dose screen; type: cell-based, human; conditions: SK-MEL-5 (Melanoma); 10^−5M
Protocol: as §1

SF-268 = experiment: NCI 60-cell one dose screen; type: cell-based, human; conditions: SF-268 (CNS cancer); 10^−5M
Protocol: as §1

HCT-15 = experiment: NCI 60-cell one dose screen; type: cell-based, human; conditions: HCT-15 (Colon cancer); 10^−5M
Protocol: as §1

A498 = experiment: NCI 60-cell one dose screen; type: cell-based, human; conditions: A498 (Renal cancer); 10^−5M
Protocol: as §1

NCI-H460 = experiment: NCI 60-cell one dose screen; type: cell-based, human; conditions: NCI-H460 (Non-small cell lung cancer); 10^−5M
Protocol: as §1

KM12 = experiment: NCI 60-cell one dose screen; type: cell-based, human; conditions: KM12 (Colon cancer); 10^−5M
Protocol: as §1

U251 = experiment: NCI 60-cell one dose screen; type: cell-based, human; conditions: U251 (CNS cancer); 10^−5M
Protocol: as §1

IGROV1 = experiment: NCI 60-cell one dose screen; type: cell-based, human; conditions: IGROV1 (Ovarian cancer); 10^−5M
Protocol: as §1

UO-31 = experiment: NCI 60-cell one dose screen; type: cell-based, human; conditions: UO-31 (Renal cancer); 10^−5M
Protocol: as §1

MDA-MB468 = experiment: NCI 60-cell one dose screen; type: cell-based, human; conditions: MDA-MB468 (Breast cancer); 10^−5M
Protocol: as §1

SN12C = experiment: NCI 60-cell one dose screen; type: cell-based, human; conditions: SN12C (Renal cancer); 10^−5M
Protocol: as §1

MALME-3M = experiment: NCI 60-cell one dose screen; type: cell-based, human; conditions: MALME-3M (Melanoma); 10^−5M
Protocol: as §1

fibroblast 3T3 = experiment: Cell toxicity in non-cancer cell; type: cell-based
Source text: To investigate the cell proliferation inhibition effect of NSC745885 in cancer cells, we compared the cancer cell proliferation inhibition effect of the NSC745885 with well-know bladder anti-cancer agent “Emodin” and clinical cancer chemical therapy agent “Doxorubicin”. The experiment bladder cancer cell lines includes T24 (FIG. 9A, 9D) and MBT2 (FIG. 9 B, 9E). We also confirm the NSC745885 cell toxicity using the non-cancer cell fibroblast 3T3 (FIG. 9C) and normal epithelial cell SV_UC—1 (FIG. 9F).

SMILES: O=C1c2ccccc2C(=O)c2c1ccc1nsnc21 [NSC745885, anthra[2,1-c][1,2,5]thiadiazole-6,11-dione]
- proliferation percentage (SW-620): 7.30%
- proliferation percentage (M14): 74.54%
- proliferation percentage (K-562): 49.61%
- proliferation percentage (786-0): −25.98%
- proliferation percentage (SR): 4.96%
- proliferation percentage (NCI/ADR-RES): −2.53%
- proliferation percentage (RXF393): 20.11%
- proliferation percentage (A549/ATCC): 104.18%
- proliferation percentage (MDA-MB-231/ATCC): −17.33%
- proliferation percentage (T-47D): −45.52%
- proliferation percentage (ACHN): −94.31%
- proliferation percentage (MOLT-4): −40.09%
- proliferation percentage (CAK1-1): 1.97%
- proliferation percentage (OVCAR-4): −94.43%
- proliferation percentage (SNB-75): 79.03%
- proliferation percentage (UACC-257): −83.07%
- proliferation percentage (OVCAR-5): −20.07%
- proliferation percentage (UACC-62): −82.32%
- proliferation percentage (RPMI-8226): −27.97%
- proliferation percentage (HL-60(TB)): −21.77%
- proliferation percentage (SK-MEL-5): 8.52%
- proliferation percentage (SF-268): 16.29%
- proliferation percentage (HCT-15): 1.48%
- proliferation percentage (A498): 130.09%
- proliferation percentage (NCI-H460): 77.41%
- proliferation percentage (KM12): 98.60%
- proliferation percentage (U251): −89.26%
- proliferation percentage (IGROV1): −88.34%
- proliferation percentage (UO-31): −79.30%
- proliferation percentage (MDA-MB468): −73.17%
- proliferation percentage (SN12C): −73.27%
- proliferation percentage (MALME-3M): −71.54%
- cell toxicity in normal cell (fibroblast 3T3): no cell toxicity
